Measured values taken from ChEMBL document CHEMBL3991946, “Linked Myc-max small molecule inhibitors” (2014).
pIC50, pKd: −log10 of the molar value. The source made the active and inactive calls. The calls are words filed in the database; no cut-off is given here.

What was measured:
[1] = target: T1, Myc proto-oncogene protein (Homo sapiens, UniProt P01106); test: Binding affinity to recombinant full-length N-terminal hexahistidine-tagged c-Myc (353 to 437 residues) bHLH-ZIP domain (unknown origin) expressed in Escherichia coli BL21 DE3 (pLysS) by fluorescence polarization assay
HL-60 = test: Cytotoxicity against human HL60 cells expressing c-Myc assessed as growth inhibition after 4 to 5 days by MTT assay; type: functional, cell-based
Daudi = test: Cytotoxicity against human Daudi Burkitt lymphoma cells expressing c-Myc assessed as growth inhibition after 4 to 5 days by MTT assay; type: functional, cell-based
[2] = Cytotoxicity against non-transformed rat TGR1 assessed as growth inhibition after 4 to 5 days by MTT assay; type: cell-based
[3] = Cytotoxicity against c-Myc null rat TGR1 reconstituted with HMGA1b or MT-MC1 assessed as growth inhibition after 4 to 5 days by MTT assay; type: cell-based
[4] = Metabolic stability of the compound
[5] = target: T2, c-Myc/c-Max (Homo sapiens) (UniProt P01106+P61244); test: Inhibition of recombinant c-Myc/Max (unknown origin) expressed in human HL60 cells assessed as disruption of c-Myc/Max association after 6 hrs by co-immunoprecipitation assay; type: cell-based
[6] = target: T2, c-Myc/c-Max (Homo sapiens); test: Inhibition of recombinant c-Myc/Max (unknown origin) expressed in human HL60 cells assessed as disruption of c-Myc/Max association after 16 hrs by co-immunoprecipitation assay; type: cell-based
[7] = target: Protein max (Homo sapiens) (UniProt P61244); test: Binding affinity to human hexahistidine-tagged Max p21 bHLH-ZIP domain expressed in Escherichia coli M15 (pRep4) at 10 uM by fluorescence polarization assay
[8] = target: T1, Myc proto-oncogene protein; test: Binding affinity to recombinant full-length N-terminal hexahistidine-tagged c-Myc (353 to 437 residues) bHLH-ZIP domain (unknown origin) expressed in Escherichia coli BL21 DE3 (pLysS) assessed as changes in shape or intensity of CD spectrum at 5 uM by circular dichroism assay
[9] = target: T1, Myc proto-oncogene protein; test: Binding affinity to recombinant full-length N-terminal hexahistidine-tagged c-Myc (353 to 437 residues) bHLH-ZIP domain (unknown origin) expressed in Escherichia coli BL21 DE3 (pLysS) assessed as changes in alpha1H signals of Phe 374 to 375 and Tyr 402 residues at 500 uM by NMR spectroscopy
[10] = target: T1, Myc proto-oncogene protein; test: Binding affinity to recombinant full-length N-terminal hexahistidine-tagged c-Myc (353 to 437 residues) bHLH-ZIP domain (unknown origin) expressed in Escherichia coli BL21 DE3 (pLysS) assessed as changes in COSY spectra in alpha1H region at 500 uM by NMR spectroscopy
[11] = target: T1, Myc proto-oncogene protein; test: Binding affinity to recombinant full-length N-terminal hexahistidine-tagged c-Myc (353 to 437 residues) bHLH-ZIP domain (unknown origin) expressed in Escherichia coli BL21 DE3 (pLysS) assessed as changes in NOESY spectra at 500 uM by NMR spectroscopy
c-Myc/Max (Homo sapiens) [12] = target: T3, c-Myc/Max (Homo sapiens) (UniProt P01106+P61244); test: (§1) Inhibition of recombinant full-length N-terminal hexahistidine-tagged c-Myc (353 to 437 residues) bHLH-ZIP domain (unknown origin) expressed in Escherichia coli BL21 DE3 (pLysS)/human hexahistidine-tagged Max p21 expressed in Escherichia coli M15 (pRep4) assessed as disruption of E-Box DNA binding preincubated for 30 mins with c-Myc followed by Max p21 and E-box element addition measured after 15 mins by electrophoretic mobility shift assay
[13] = target: T1, Myc proto-oncogene protein; test: Displacement of 10058-F4 from recombinant full-length N-terminal hexahistidine-tagged c-Myc (353 to 437 residues) bHLH-ZIP domain (unknown origin) expressed in Escherichia coli BL21 DE3 (pLysS) by fluorescence polarization assay
[14] = target: T1, Myc proto-oncogene protein; test: Binding affinity to recombinant truncated N-terminal hexahistidine-tagged c-Myc (363 to 381 residues) bHLH-ZIP domain (unknown origin) expressed in Escherichia coli BL21 DE3 (pLysS) by fluorescence polarization assay
[15] = target: T1, Myc proto-oncogene protein; test: Binding affinity to recombinant truncated N-terminal hexahistidine-tagged c-Myc (400 to 439 residues) bHLH-ZIP domain (unknown origin) expressed in Escherichia coli BL21 DE3 (pLysS) by fluorescence polarization assay
c-Myc/Max (Homo sapiens) [16] = target: T3, c-Myc/Max (Homo sapiens); test: as §1, with “binding at 25 to 50 nM” for “binding”, “element” for “element addition”
[17] = target: T1, Myc proto-oncogene protein; test: Binding affinity to recombinant full-length N-terminal hexahistidine-tagged c-Myc (353 to 437 residues) bHLH-ZIP domain (unknown origin) expressed in Escherichia coli BL21 DE3 (pLysS) assessed as changes in alpha1H signals of Tyr 402 residues at 500 uM by NMR spectroscopy

T1 sequence (P01106 whole entry, the tested form may be a part): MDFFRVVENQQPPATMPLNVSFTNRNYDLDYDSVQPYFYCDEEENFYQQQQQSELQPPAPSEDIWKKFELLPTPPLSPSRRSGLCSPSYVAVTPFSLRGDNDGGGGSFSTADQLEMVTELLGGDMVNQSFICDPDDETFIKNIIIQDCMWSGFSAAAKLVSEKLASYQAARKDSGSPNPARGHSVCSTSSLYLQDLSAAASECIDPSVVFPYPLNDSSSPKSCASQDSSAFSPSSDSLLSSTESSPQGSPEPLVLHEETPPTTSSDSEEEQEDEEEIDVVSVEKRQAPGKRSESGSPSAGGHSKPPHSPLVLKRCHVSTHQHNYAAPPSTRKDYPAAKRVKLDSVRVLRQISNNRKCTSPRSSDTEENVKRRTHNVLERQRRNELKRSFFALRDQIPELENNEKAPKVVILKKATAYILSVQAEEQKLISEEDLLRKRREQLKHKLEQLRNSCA
T2 sequence (P01106 whole entry): as the sequence (P01106 whole entry, the tested form may be a part) above
T2 sequence (P61244 2-160 partner limits assumed): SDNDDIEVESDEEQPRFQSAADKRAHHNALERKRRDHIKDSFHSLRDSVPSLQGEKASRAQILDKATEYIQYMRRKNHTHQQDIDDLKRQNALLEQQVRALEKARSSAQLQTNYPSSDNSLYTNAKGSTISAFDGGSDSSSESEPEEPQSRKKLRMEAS
Chain of Protein max (Homo sapiens) (P61244 whole entry, the tested form may be a part): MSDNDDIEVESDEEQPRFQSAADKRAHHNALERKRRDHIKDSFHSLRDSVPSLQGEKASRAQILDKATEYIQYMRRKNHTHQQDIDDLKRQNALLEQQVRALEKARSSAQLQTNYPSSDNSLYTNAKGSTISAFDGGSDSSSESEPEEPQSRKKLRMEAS

O=C(CNC(=O)c1ccc(Nc2ccc([N+](=O)[O-])c3nonc23)cc1)NCCCCCNC(=O)c1ccc(/C=C2\SC(=S)NC2=O)cc1
pKd [1]: 6.49
pIC50 (HL-60): 4.89 to 5.15
pIC50 (Daudi): 4.96 to 5.15
growth inhibition (GI) [2]: Non-Toxic
growth inhibition (GI) [3]: Non-Toxic

CCc1ccc(/C=C2\SC(=O)N(CCCCNC(=O)c3ccc(Nc4ccc([N+](=O)[O-])c5nonc45)cc3)C2=O)cc1
growth inhibition (GI) [2]: Non-Toxic
growth inhibition (GI) [3]: Non-Toxic
Stability [4]: Unstable

O=C(NCCCCCCN1C(=O)S/C(=C\c2ccc(F)cc2)C1=O)c1ccccc1Nc1ccc([N+](=O)[O-])c2nonc12
pKd [1]: 8.34
pIC50 (HL-60): 5.46 to 5.52
pIC50 (Daudi): 5.10 to 5.22

O=C(NCCCCCN1C(=O)S/C(=C\c2ccc(F)cc2)C1=O)c1ccc(Nc2ccc([N+](=O)[O-])c3nonc23)cc1
pKd [1]: 8.44
pIC50 (HL-60): 5.00 to 5.22
pIC50 (Daudi): 5.15 to 5.22

CCc1ccc(/C=C2\SC(=O)N(CCCCNC(=O)c3ccccc3Nc3ccc([N+](=O)[O-])c4nonc34)C2=O)cc1
pKd [1]: 8.52
pIC50 (HL-60): 5.22 to 5.70
pIC50 (Daudi): 5.60 to 5.70
inhibition [5]: Dose-dependent effect
inhibition [6]: inactive
Stability [4]: Unstable

O=C(CCCCCNC(=O)c1ccc(Nc2ccc([N+](=O)[O-])c3nonc23)cc1)NCCCCCNC(=O)c1ccc(/C=C2\SC(=S)NC2=O)cc1
pKd [1]: 7.26

CCc1ccc(/C=C2\SC(=O)N(CCCCCNC(=O)c3ccc(Nc4ccc([N+](=O)[O-])c5nonc45)cc3)C2=O)cc1
pKd [1]: 9.22
Activity [7]: inactive
Activity [8]: inactive
inhibition [9]: Active
inhibition [10]: Active
Activity [11]: Active
inhibition (c-Myc/Max (Homo sapiens) [12]): Active
pIC50 (HL-60): 5.05 to 5.15
pIC50 (Daudi): 5.40 to 5.70
growth inhibition (GI) [2]: Non-Toxic
growth inhibition (GI) [3]: Non-Toxic

CCc1ccc(/C=C2\SC(=O)N(CCCCCNC(=O)c3cccc(Nc4ccc([N+](=O)[O-])c5nonc45)c3)C2=O)cc1
pKd [1]: 6.96
Activity [7]: inactive
Activity [8]: inactive
inhibition (c-Myc/Max (Homo sapiens) [12]): Active
pIC50 (HL-60): < 4.52
pIC50 (Daudi): < 5.00
growth inhibition (GI) [2]: Non-Toxic
growth inhibition (GI) [3]: Non-Toxic

O=C1NC(=S)S/C1=C\c1ccc(C(=O)NCCCCCNC(=O)c2cccc(Nc3ccc([N+](=O)[O-])c4nonc34)c2)cc1
Activity [7]: inactive
Activity [8]: inactive
inhibition (c-Myc/Max (Homo sapiens) [12]): Active
growth inhibition (GI) [2]: Non-Toxic
growth inhibition (GI) [3]: Non-Toxic

CCc1ccc(/C=C2\SC(=O)N(CCCCCCNC(C)=O)C2=O)cc1
pKd [1]: 5.15
Activity [13]: Active

O=C(NCCCCCCN1C(=O)S/C(=C\c2ccc(F)cc2)C1=O)c1ccc(Nc2ccc([N+](=O)[O-])c3nonc23)cc1
pKd [1]: 8.77
pIC50 (HL-60): 5.40 to 5.52
pIC50 (Daudi): 5.92
inhibition [5]: Dose-dependent effect
inhibition [6]: inactive
Stability [4]: Unstable

CCc1ccc(/C=C2\SC(=O)N(CCCCCNC(=O)CNC(=O)c3ccc(Nc4ccc([N+](=O)[O-])c5nonc45)cc3)C2=O)cc1
pKd [1]: 8.44
pIC50 (HL-60): 5.40 to 5.70
pIC50 (Daudi): 5.22 to 5.40
growth inhibition (GI) [2]: Non-Toxic
growth inhibition (GI) [3]: Non-Toxic

CC(=O)NCCCCCOC(=O)c1ccc(Nc2ccc([N+](=O)[O-])c3nonc23)cc1
pKd [1]: 5.77

O=C1NC(=S)S/C1=C\c1ccc(C(=O)O)cc1
pKd [1]: 4.59

CCc1ccc(/C=C2\SC(=O)N(CCCCCNC(=O)CCCCCNC(=O)c3ccc(Nc4ccc([N+](=O)[O-])c5nonc45)cc3)C2=O)cc1
pKd [1]: 8.30

O=C1NC(=S)S/C1=C\c1ccc(C(=O)NCCCCCNC(=O)c2ccccc2Nc2ccc([N+](=O)[O-])c3nonc23)cc1
pKd [1]: 7.62
Activity [7]: inactive
pKd [14]: 8.00
pKd [15]: 6.91
Activity [8]: inactive
inhibition (c-Myc/Max (Homo sapiens) [12]): Active
pIC50 (HL-60): < 5.00
growth inhibition (GI) [2]: Non-Toxic
growth inhibition (GI) [3]: Non-Toxic

O=[N+]([O-])c1ccc(Nc2ccccc2-c2ccccc2)c2nonc12
inhibition [10]: Active
inhibition (c-Myc/Max (Homo sapiens) [16]): Active
growth inhibition (GI) [2]: Non-Toxic
growth inhibition (GI) [3]: Non-Toxic

CCc1ccc(/C=C2\SC(=S)NC2=O)cc1
inhibition [17]: Active
inhibition [10]: Active
inhibition (c-Myc/Max (Homo sapiens) [16]): Active
growth inhibition (GI) [2]: Non-Toxic
growth inhibition (GI) [3]: Non-Toxic

O=C(NCCCCCN1C(=O)S/C(=C\c2ccc(F)cc2)C1=O)c1ccccc1Nc1ccc([N+](=O)[O-])c2nonc12
pKd [1]: 7.96
pIC50 (HL-60): 5.77 to 5.82
pIC50 (Daudi): 5.92 to 6.00
inhibition [5]: Dose-dependent effect
inhibition [6]: inactive
Stability [4]: Unstable

O=C1NC(=S)S/C1=C/c1ccc(C(=O)NCCCCCNC(=O)c2ccc(Nc3ccc([N+](=O)[O-])c4nonc34)cc2)cc1
Activity [7]: inactive
Activity [8]: inactive
inhibition (c-Myc/Max (Homo sapiens) [12]): Active
growth inhibition (GI) [2]: Non-Toxic
growth inhibition (GI) [3]: Non-Toxic
